Data as given in patent publication US6274738A, “Carboxamide derivatives having aryl and thiazole rings” (Geron Corporation, priority 1997, dated 2001).

Molecular target: T1, DNA primase (Homo sapiens, UniProt P49642+P49643)
T1 construct: using a nuclear extract comprising primase activity, as described above; endogenous in cells; host or cells: nuclear extract
Assay: Primase activity assay (incorporation of radioactive dATP on poly(dT) template)
Type: biochemical
Conditions: approximate concentration at which 50% of the primase enzyme activity was inhibited; determined using the methods described herein; read-out: IC50 (primase-inhibiting properties)
Experimental: In the assay, primase was diluted with primase dilution buffer (50% glycerol, 50 mM Tris HCl (pH 8.0) 20 mM KCl, 1 mM EDTA, 1 mM βME) to achieve a selected reaction volume (typically, reactions were carried out in an overall volume of 60 μl). A typical 60 μl reaction volume further included 50 mM Tris HCl (pH 8.0); 20 mM KCl, 200 μg/ml BSA, 4 mM MgCl2, 2 mM fresh DTT, 2 mM rATP, 5 μCi ^32 P (800 Ci/mmol) or 2.5 μCi ^33 P (2,000 Ci/mMol) dATP, 10 μg/ml Poly (dT), and primase and polymerase α.
The recombinant 180 Kd human polymerase ax protein was isolated from a bacculovirally transduced SF9 cell as described in Wang et al. (1995) Methods in Enzymology 262: 77-84. Typically, about 0.05 μg of p180 and about 0.025 μg of a 1:1 mixture of p49/p58 primase subunits were used per reaction.
Several reactions were typically set up in parallel, although a single reaction can also be assessed. For example, a Zymate XP (Zymark Corporation; Hopkinton, Mass.) automated robot using Microlab 2200 (Hamilton; Reno, Nev.) pipeting station to transfer parallel samples to 96 well microtiter plate was used to set up several parallel simultaneous reactions.
Parallel reactions were incubated for 30 minutes at 30° C. 15 μl of each reaction was spotted into one well on a Unifilter plate (Whatman GF/C glass fiber filter bottom), typically using the automated system described. The filters were then air dried. The Unifilter plate was placed onto the vacuum chamber of a dot blot apparatus, and 200 μl of ice cold 5% TCA/20 mM sodium pyrophosphate wash was added to each well, and vacuum applied. Each filter was washed three times. 100 μl of an ice cold 70% ethanol wash was added then added to each well, and vacuum applied. The ethanol wash was repeated, and the filters allowed to air dry. Excess fluid was removed from the bottom of the plate. The bottom of the plate was sealed with a transparent sealer, and 50 μl of Microscint-20 scintillation fluid was added to each well, e.g., using a Biomek1000® (Beckman Instruments; Dallas, Tex.). The top of the plate was sealed with TOPSEAL-S® Microplate Heat Sealing Film and CPM were counted for each well using a topcount microplate scintillation counter (Packard; Downers Grove, Ill.) or Trilux Microbeta 1450 (Wallac; Gaithersburg, Md.).
An assay similar to Example 2 was also developed to measure primase activity. Although the assay is described below with reference to using a nuclear extract as the source for primase activity, one of skill will recognize that the assay can easily be adapted for purified or recombinant primase. Examples 1 and 2 provide a description of the buffers, nuclear extracts, etc.
The reagents were combined into one or more separate reaction mixtures, with the poly dT, nuclear extract, and ^32 dATP being added just before use. The reaction mixtures were incubated for 1 hour at 37° C. The reactions were spotted onto filters on a unifilter plate and treated as described in Example 2.
The primase modulator compounds show in FIG. 1 were determined to modulate primase activity in the assays shown above, using a nuclear extract comprising primase activity, as described above.
For primary screening, compounds were added at the beginning of the reaction with all reagents as described above. Compounds were tested at a concentration of 100 μM. Compounds were tested in duplicate reactions.
This concentration information was used to determine the approximate IC50 for the primase modulating agents described in FIG. 1. The extract/enzyme preparation for primase modulating agents was preincubated with the compound for 30 min at 37° C. prior to addition of the remaining reagents.
The example modulators are primase inhibitors. The IC50 s for the compounds indicated in FIG. 1 was the approximate concentration of the modulator at which 50% of the primase enzyme activity in a reaction mixture was inhibited by the modulator.

T1 sequence (P49642 whole entry): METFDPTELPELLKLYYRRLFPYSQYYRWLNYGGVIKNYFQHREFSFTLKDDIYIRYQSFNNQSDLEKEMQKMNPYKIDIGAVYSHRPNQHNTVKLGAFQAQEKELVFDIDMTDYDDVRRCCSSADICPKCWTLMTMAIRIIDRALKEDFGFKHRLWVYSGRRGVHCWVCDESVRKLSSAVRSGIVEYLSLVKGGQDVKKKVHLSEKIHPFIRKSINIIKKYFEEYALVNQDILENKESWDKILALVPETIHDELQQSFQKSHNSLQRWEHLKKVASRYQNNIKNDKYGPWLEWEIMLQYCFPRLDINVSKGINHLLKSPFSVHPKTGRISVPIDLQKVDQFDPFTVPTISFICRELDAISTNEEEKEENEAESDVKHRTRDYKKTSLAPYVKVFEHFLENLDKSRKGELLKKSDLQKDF
T1 sequence (P49643 whole entry): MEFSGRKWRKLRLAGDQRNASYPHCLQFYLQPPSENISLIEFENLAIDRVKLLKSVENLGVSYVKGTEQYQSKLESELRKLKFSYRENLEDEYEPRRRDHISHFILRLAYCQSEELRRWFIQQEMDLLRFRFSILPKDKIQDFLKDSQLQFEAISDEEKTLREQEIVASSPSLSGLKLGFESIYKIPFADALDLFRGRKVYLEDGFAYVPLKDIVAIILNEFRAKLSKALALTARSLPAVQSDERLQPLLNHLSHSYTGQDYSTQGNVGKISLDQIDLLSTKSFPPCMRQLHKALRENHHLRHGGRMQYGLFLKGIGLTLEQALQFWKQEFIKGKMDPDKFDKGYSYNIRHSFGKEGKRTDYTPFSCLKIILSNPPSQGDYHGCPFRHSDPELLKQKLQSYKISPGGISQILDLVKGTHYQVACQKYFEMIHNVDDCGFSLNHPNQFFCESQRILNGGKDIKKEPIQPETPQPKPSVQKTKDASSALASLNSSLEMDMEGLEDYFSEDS
T1 sequence (P09884 whole entry partner): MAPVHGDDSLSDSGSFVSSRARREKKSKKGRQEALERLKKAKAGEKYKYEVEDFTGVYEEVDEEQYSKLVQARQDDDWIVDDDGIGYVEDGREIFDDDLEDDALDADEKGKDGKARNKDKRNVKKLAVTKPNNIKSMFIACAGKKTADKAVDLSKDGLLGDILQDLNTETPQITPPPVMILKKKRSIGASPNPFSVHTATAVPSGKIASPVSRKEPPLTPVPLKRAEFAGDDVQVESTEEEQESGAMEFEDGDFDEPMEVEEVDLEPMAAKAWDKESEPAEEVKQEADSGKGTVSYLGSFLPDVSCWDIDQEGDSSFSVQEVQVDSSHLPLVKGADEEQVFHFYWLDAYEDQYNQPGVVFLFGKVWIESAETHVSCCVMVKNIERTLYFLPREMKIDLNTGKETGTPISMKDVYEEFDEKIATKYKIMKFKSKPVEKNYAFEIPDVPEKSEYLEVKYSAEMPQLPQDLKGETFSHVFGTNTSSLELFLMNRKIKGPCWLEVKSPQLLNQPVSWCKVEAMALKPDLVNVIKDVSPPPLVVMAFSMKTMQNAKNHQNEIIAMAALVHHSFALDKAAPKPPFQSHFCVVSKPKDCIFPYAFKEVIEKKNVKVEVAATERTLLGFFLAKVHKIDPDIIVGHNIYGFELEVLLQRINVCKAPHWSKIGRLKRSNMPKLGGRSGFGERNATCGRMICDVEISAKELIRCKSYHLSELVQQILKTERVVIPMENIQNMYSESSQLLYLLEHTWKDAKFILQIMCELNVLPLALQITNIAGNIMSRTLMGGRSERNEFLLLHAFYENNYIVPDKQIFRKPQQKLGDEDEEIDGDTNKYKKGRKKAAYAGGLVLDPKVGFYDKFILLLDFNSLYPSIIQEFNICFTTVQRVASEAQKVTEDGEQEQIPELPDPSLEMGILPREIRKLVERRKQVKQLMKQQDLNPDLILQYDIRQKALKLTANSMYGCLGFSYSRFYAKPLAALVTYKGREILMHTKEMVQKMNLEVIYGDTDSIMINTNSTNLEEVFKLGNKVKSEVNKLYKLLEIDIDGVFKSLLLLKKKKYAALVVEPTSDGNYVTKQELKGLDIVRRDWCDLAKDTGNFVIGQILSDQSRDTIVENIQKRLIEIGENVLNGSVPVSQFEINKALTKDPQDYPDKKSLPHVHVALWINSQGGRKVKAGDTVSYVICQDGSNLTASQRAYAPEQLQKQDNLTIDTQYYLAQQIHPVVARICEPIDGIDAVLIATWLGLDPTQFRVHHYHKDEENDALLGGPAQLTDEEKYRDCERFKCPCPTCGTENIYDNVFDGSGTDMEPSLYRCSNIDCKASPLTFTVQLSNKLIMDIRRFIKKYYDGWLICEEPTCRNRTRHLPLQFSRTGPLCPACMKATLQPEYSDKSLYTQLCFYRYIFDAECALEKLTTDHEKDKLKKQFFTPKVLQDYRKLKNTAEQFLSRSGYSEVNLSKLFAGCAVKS
T1 sequence (Q14181 whole entry partner): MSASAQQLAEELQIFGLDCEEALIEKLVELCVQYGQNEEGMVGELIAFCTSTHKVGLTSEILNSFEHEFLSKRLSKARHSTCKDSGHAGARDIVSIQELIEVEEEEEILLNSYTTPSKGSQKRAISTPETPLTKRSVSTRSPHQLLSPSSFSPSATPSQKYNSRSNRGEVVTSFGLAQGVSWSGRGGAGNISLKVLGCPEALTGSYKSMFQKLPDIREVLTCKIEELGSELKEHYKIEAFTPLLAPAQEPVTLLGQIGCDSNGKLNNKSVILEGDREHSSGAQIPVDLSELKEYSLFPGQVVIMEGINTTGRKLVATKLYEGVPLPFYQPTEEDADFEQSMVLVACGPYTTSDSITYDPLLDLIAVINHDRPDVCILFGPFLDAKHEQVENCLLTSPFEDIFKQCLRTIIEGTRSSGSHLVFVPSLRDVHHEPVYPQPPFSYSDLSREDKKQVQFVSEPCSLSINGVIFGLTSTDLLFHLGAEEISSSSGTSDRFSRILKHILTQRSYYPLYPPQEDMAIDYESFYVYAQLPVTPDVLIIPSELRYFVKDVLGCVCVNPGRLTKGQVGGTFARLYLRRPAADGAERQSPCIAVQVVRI

## O=C(Nc1ccc(C(F)(F)F)cc1)c1csc(-c2ccncc2)n1 [Compound 5]
  IC50: ~44 µM

## O=C(Nc1ccc(F)cc1F)c1csc(-c2ccncc2)n1 [Compound 8]
  IC50: ~19 µM

## O=C(Nc1ccccc1Cl)c1csc(-c2cccnc2)n1 [Compound 2]
  IC50: ~30 µM

## O=C(Nc1cccc(C(F)(F)F)c1)c1csc(-c2ccncc2)n1 [Compound 4]
  IC50: ~37 µM

## O=C(Nc1ccc(Br)cc1)c1csc(-c2ccncc2)n1 [Compound 7]
  IC50: ~63 µM

## O=C(Nc1ccc(Cl)cc1)c1csc(-c2ccncc2)n1 [Compound 6]
  IC50: ~37 µM
